Data: patent US11298390B2, “Total flavonoids extract of Gynura formosana Kitam., preparation method therefor and use thereof for treating hyperuricemia” (ZHANGZHOU PIEN TZE HUANG PHARMACEUTICAL CO., LTD., priority 2017, dated 2022)

What was measured:
[1] = tested on: mouse model of hyperuricemia; test: Uric acid level in serum of hyperuricemia model mice; assay type: in vivo, Kunming mice; conditions: xanthine i.p. hyperuricemia mice, dose 0.0002 g/10 g, once daily 11 days, mean ± SD
Method: (§1) The mouse model of hyperuricemia was established by intraperitoneal injection of xanthine to increase the content of uric acid precursor in the body and thus to increase the generation of uric acid. The mouse model of hyperuricemia was administered via gavage with the total flavonoid extract from Gynura formosana Kitam. The inhibition rates of uric acid and […] in serum of the mouse and the inhibition rate of the activity of xanthine oxidase in the liver of the mouse were recorded to study the effect of the total flavonoid extract on symptoms of gout caused by hyperuricemia.
(§2) The high, medium and low dose groups of the total flavonoid extract were administered via gavage with an aqueous solution of total flavonoid extract from Gynura formosana Kitam. at a dose of 24 mg/10 mL, 12 mg/10 mL, 6 mg/10 mL, respectively. The model group was administered an equal-volume of saline. All of the drugs were administered once daily for continuous 11 days.
(§3) After 1 hour at last administration, the mice received 10% xanthine dissolved in 0.8% CMC-Na via intraperitoneal injection. After 0.5 hours of modeling, the mice were sacrificed and blood was taken from eyeballs. Then the mice were dissected immediately and livers were taken and stored at a low temperature. […]
(§4) The index was calculated by referring to the instructions. […]

[2] = tested on: mouse model of hyperuricemia; test: Creatinine level in serum of hyperuricemia model mice; assay type: in vivo, Kunming mice; conditions: dose 0.0002 g/10 g, once daily 11 days, mean ± SD
Method: as §1, §2, §3, §4

Oc1ncnc2[nH]ncc12 [allopurinol]
Uric Acid [1]: 22.71 ± 0.27 mg/L | Creatinine [2]: 23 ± 1 µM
